# Measured values from patent US9958436B2, “Determination of cell chirality” (THE TRUSTEES OF COLUMBIA UNIVERSITY IN THE CITY OF NEW YORK, priority 2011, dated 2018).
# Entries after “also recorded” stand apart in the source; their conditions may differ.
# Tests used:
# C2C12 cells [1] = assay: Effects of culture conditions (substrate protein coating, calcium chelator) on cell chirality; type: cell-based, mouse; conditions: count of rings
# Procedure: An adhesive SAM octadecanethiol (Sigma) was transferred onto the gold-coated (150 Å in thickness) glass slide with the PDMS stamp (see e.g., FIG. 1) (L. Q. Wan et al., Integr Biol (Camb) 2, 346 (Aug. 10, 2010)). The slide was then immersed in a non-adhesive ethylene glycol-terminated SAM (HS-(CH2)11-EG3, Prochimia, Poland) for 3 hours. Finally, patterned surfaces were washed with ethanol and coated with 10 μg/ml fibronectin (Sigma) for 30 minutes.
# (§1) Cells were maintained in tissue flasks with culture media specified in TABLE 2. After reaching 70% confluency, cells were trypsinized and seeded onto protein-coated patterned surfaces. Once the cells attached, extra cells were washed off with fresh medium. At this time drugs were added into the culture medium if necessary. Phase contrast images were taken after overnight incubation at 37° C. and 5% CO2 when cells reached confluency on the ring patterns.
# (§2) High-resolution phase contrast images of live patterned cells were taken at a resolution of ˜0.645 μm/pixel, and analyzed using a custom-written code in MatLab (MathWorks, Natick, Mass.), based on the automated detection of intensity gradient and circular statistics (W. J. Karlon et al., Ann Biomed Eng 27, 712 (November-December, 1999)). In this algorithm, the intensity gradient was determined pixel by pixel with a Gaussian differential filter. In each sub-region of the image, the dominant local direction was determined using an accumulator scheme, in which the orientation of each pixel follows a von Mises distribution, a circular analogue of the linear normal distribution. Subsequently, the orientation in each sub-region was converted into an angle bias based on its deviation from the circumferential direction (see e.g., FIG. 2C). Mean angle and standard deviation of LR asymmetry were calculated for all sub-regions, using circular statistics (N. I. Fish, Statistical Analysis of Circular Data. (Cambridge University Press, Cambridge, UK, 1993)). […] The sub-region size was therefore set to 20 by 20 pixels (i.e., 13 by 13 μm).
# (§3) Cell chirality on ring patterns (i.e., clockwise or counterclockwise alignment) was determined from calculated biased angles in local regions with one sample test for the mean angle, analogous to the one sample t-test in linear statistics (N. I. Fish, Statistical Analysis of Circular Data. (Cambridge University Press, Cambridge, UK, 1993)).
# The geometric boundaries determined organelle positioning (i.e., x-axis), with centrosomes (bright green, see e.g., FIG. 4B) and Golgi apparatus (red, see e.g., FIG. 4C) being positioned closer to the boundaries than the cell nucleus (blue) (R. A. Desai, L. Gao, S. Raghavan, W. F. Liu, C. S. Chen, J Cell Sci 122, 905 (Apr. 1, 2009)), independent of the gravitational direction. In addition, cell chirality was maintained on patterns with different surface chemistry, and after the disruption of cadherin function (see e.g., FIG. 1, TABLE 6, TABLE 7).
# C2C12 cells [2] = assay: Cell chirality (alignment) on micropatterned rings, drug treatment, C2C12; type: cell-based, mouse; conditions: for CCW: counter-clockwise alignment / CW: clockwise alignment / N/S: not significantly biased to CW or CCW: C2C12 on ring patterns, count of rings
# Procedure: as §1
# (§4) To examine the role of actin in left-right (LR) asymmetry, cells were tested with 20-500 nM Latrunculin A, 0.05-1.0 μg/ml Cytochalasin D, and 1-100 nM Jasplakinolide. Latrunculin A inhibits actin polymerization by forming a 1:1 molar complex with G-actin, thereby inhibiting its ability to polymerize into F-actin (M. Coue, S. L. Brenner, I. Spector, E. D. Korn, FEBS Lett 213, 316 (Mar. 23, 1987)). Cytochalasin D inhibits actin polymerization by binding to the growing ends of F-actin chains and thus preventing the attachment and addition of G-actin monomers (J. A. Cooper, J Cell Biol 105, 1473 (October, 1987)). Jasplakinolide is known to bind to and stabilize actin filaments in vitro (M. R. Bubb, I. Spector, B. B. Beyer, K. M. Fosen, J Biol Chem 275, 5163 (Feb. 18, 2000)).
# (§5) To examine the role of microtubules in LR asymmetry, 0.2-2 μM Nocodazole, and 0.3-30 nM Taxol were used. Nocodazole suppresses microtubule dynamics by destabilizing and disassembling microtubules (J. A. Cooper, J Cell Biol 105, 1473 (October, 1987)). Taxol inhibits the microtubule depolymerization and stabilizes microtubules (W. B. Derry, L. Wilson, M. A. Jordan, Biochemistry 34, 2203 (Feb. 21, 1995)).
# To examine the role of the actomyosin motor, cells were tested with […], […], and 0.5-10 […]. Y-27632 works as a selective inhibitor to prevent the phosphorylation of the myosin regulatory light chain (T. Ishizaki et al., Mol Pharmacol 57, 976 (May, 2000)). ML-7 acts as a selective inhibitor of the myosin light chain kinase (M. Isemura, T. Mita, K. Satoh, K. Narumi, M. Motomiya, Cell Biol Int Rep 15, 965 (October, 1991)). Blebbistatin forms a low actin affinity complex through binding to myosin heads, causing the inhibition of nonmuscle myosin II ATPase activity (M. Kovacs, J. Toth, C. Hetenyi, A. Malnasi-Csizmadia, J. R. Sellers, J Biol Chem 279, 35557 (Aug. 20, 2004)).
# as §2, §3
# hUVEC cells = assay: Cell chirality (alignment) on micropatterned rings, drug treatment, hUVEC; type: cell-based, human; conditions: hUVEC on ring patterns, count of rings
# Procedure: as §1, §4, §5, §2, §3
# skin tumor cancer cells = assay: Cell chirality on patterned substrates, skin tumor cancer cells, actin interfering reagent; type: cell-based, human; conditions: count of patterns
# Procedure: as §2, §3
# Experiments were conducted to determine whether cancer cell chirality depends on actin function. Skin cancer cells were treated with actin interfering reagent Lantrunculin A at 0 nM (control), 20 nM, 50 nM, 100 nM, or 200 nM.
# C2C12 cells [3] = assay: Cell polarization by organelle positioning relative to ring boundaries (immunofluorescence); type: cell-based, mouse; conditions: C2C12 on rings; centrosome vs nucleus position
# Procedure: After imaging, cells were fixed with 4% formaldehyde in cytoskeletal buffer (10 mM MES, 138 mM KCl, 3 mM MgCl2, 2 mM EGTA, and 0.32 M sucrose) for 25 minutes. For actin/tubulin double staining, the cells were incubated with phalloidin-TRITC (1:400; Invitrogen) and anti-Tubulin-FITC (1:50; Sigma) for 1 hour. For the Golgi apparatus positioning inside patterned rings, the cells were incubated in 1 μg/ml anti-human golgin-97 (Invitrogen) for 1 hour. After secondary antibodies, cell nuclei were stained with 200 ng/ml 40, 6-diamidino-2-phenylindole (DAPI; Sigma) for 10 minutes. Finally, the cells were mounted with Fluoromount-G medium (SouthernBiotech, Birmingham, Ala.).
# C2C12 cells [4] = assay: Analysis of cell migration on ring patterns (time-lapse, digital image correlation); type: cell-based, mouse; conditions: C2C12 treated
# Procedure: For time-lapse videos, cells were patterned on a gold-coated glass-bottom Petri dish (ibid, München, Germany). After cells attached, the dish was transferred into an environmental chamber (37° C. and 5% CO2) and image time series were recorded every 5 minutes at a resolution of 1.56 μm/pixel for a total time of 20-40 hours. As the image capture rate is much higher than the characteristic time for cell migration, digital image correlation, together with sub-pixel displacement estimation, were used to determine the displacements of cell migration. A FFT (fast Fourier transform)-based method was first utilized to match regions of two sequential phase contrast images. The calculated displacement values were then used as inputs for a more accurate estimation of displacement fields at a sub-pixel level, using a second-order image correlation algorithm described previously (P. Zhou, K. E. Goodson, Opt Eng 40, 1613 (August, 2001)). To evaluate the bias of cell migration, the obtained velocity field was further projected in the circumferential (Vθ) and radial (Vr) direction.
# [5] = substrate protein coating of the pattern
# [6] = calcium chelator added to culture, 0.5 mM
# [7] = calcium chelator added to culture, 2 mM
molecule,measurement,setting,value
Laminin,CCW: counter-clockwise alignment,C2C12 cells [1]; [5],34
same,CW: clockwise alignment,C2C12 cells [1]; [5],2
same,N/S: not significantly biased to CW or CCW,C2C12 cells [1]; [5],2
Fibronectin,CCW: counter-clockwise alignment,C2C12 cells [1]; [5],32
same,CW: clockwise alignment,C2C12 cells [1]; [5],1
same,N/S: not significantly biased to CW or CCW,C2C12 cells [1]; [5],4
O=C(O)CN(CCOCCOCCN(CC(=O)O)CC(=O)O)CC(=O)O [EGTA],CCW: counter-clockwise alignment,C2C12 cells [1]; [6],24
same,CW: clockwise alignment,C2C12 cells [1]; [6],0
same,N/S: not significantly biased to CW or CCW,C2C12 cells [1]; [6],2
same,CCW: counter-clockwise alignment,C2C12 cells [1]; [7],12
same,CW: clockwise alignment,C2C12 cells [1]; [7],1
same,N/S: not significantly biased to CW or CCW,C2C12 cells [1]; [7],3
C/C1=C/C(=O)O[C@@H]2C[C@@H](CC[C@H](C)/C=C\C=C\CC1)O[C@@](O)([C@@H]1CSC(=O)N1)C2 [Latrunculin A],CCW: counter-clockwise alignment,C2C12 cells [2]; drug 50 nM,2
same,CW: clockwise alignment,C2C12 cells [2]; drug 50 nM,61
same,N/S: not significantly biased to CW or CCW,C2C12 cells [2]; drug 50 nM,15
same,CCW: counter-clockwise alignment,C2C12 cells [2]; drug 200 nM,0
same,CW: clockwise alignment,C2C12 cells [2]; drug 200 nM,57
same,N/S: not significantly biased to CW or CCW,C2C12 cells [2]; drug 200 nM,7
same,CCW: counter-clockwise alignment,C2C12 cells [2]; drug 500 nM,0
same,CW: clockwise alignment,C2C12 cells [2]; drug 500 nM,1
same,N/S: not significantly biased to CW or CCW,C2C12 cells [2]; drug 500 nM,10
same,effect on chirality of C2C12 cells,C2C12 cells [2]; low concentrations of the actin treadmilling inhibitors,reversed the chirality of C2C12 cells from CCW into CW
same,CCW: counter-clockwise alignment,hUVEC cells; drug 20 nM,0
same,CW: clockwise alignment,hUVEC cells; drug 20 nM,36
same,N/S: not significantly biased to CW or CCW,hUVEC cells; drug 20 nM,8
same,CCW: counter-clockwise alignment,hUVEC cells; drug 50 nM,0
same,CW: clockwise alignment,hUVEC cells; drug 50 nM,2
same,N/S: not significantly biased to CW or CCW,hUVEC cells; drug 50 nM,19
same,CCW: counter-clockwise alignment,hUVEC cells; drug 200 nM,5
same,CW: clockwise alignment,hUVEC cells; drug 200 nM,2
same,N/S: not significantly biased to CW or CCW,hUVEC cells; drug 200 nM,56
same,CCW: counter-clockwise alignment,hUVEC cells; drug 500 nM,1
same,CW: clockwise alignment,hUVEC cells; drug 500 nM,2
same,N/S: not significantly biased to CW or CCW,hUVEC cells; drug 500 nM,42
same,CCW: counter-clockwise alignment,skin tumor cancer cells; 20 nM,0
same,CW: clockwise alignment,skin tumor cancer cells; 20 nM,21
same,N/S: not significantly biased to CW or CCW,skin tumor cancer cells; 20 nM,4
same,CCW: counter-clockwise alignment,skin tumor cancer cells; 50 nM,1
same,CW: clockwise alignment,skin tumor cancer cells; 50 nM,28
same,N/S: not significantly biased to CW or CCW,skin tumor cancer cells; 50 nM,2
same,CCW: counter-clockwise alignment,skin tumor cancer cells; 100 nM,0
same,CW: clockwise alignment,skin tumor cancer cells; 100 nM,32
same,N/S: not significantly biased to CW or CCW,skin tumor cancer cells; 100 nM,0
same,CCW: counter-clockwise alignment,skin tumor cancer cells; 200 nM,2
same,CW: clockwise alignment,skin tumor cancer cells; 200 nM,8
same,N/S: not significantly biased to CW or CCW,skin tumor cancer cells; 200 nM,3
same,effect on cell polarization (organelle positioning relative to boundaries),C2C12 cells [3],did not alter cell polarization; also recorded: does not change the polarity of C2C12 cells
same,direction of cell migration at the boundaries,C2C12 cells [4]; versus untreated,reversal at the boundaries
same,cell migration velocity at the ring boundaries,C2C12 cells [4]; CW along the outer ring and CCW along the inner ring,15 μm/hr
